According to publication PMC6958387, “Biological Evaluation of Arylsemicarbazone Derivatives as Potential Anticancer Agents” (Pharmaceuticals, 2019):

Key:
[1] = system: K562, HL-60, MOLT-4, HEp-2, NCI-H292, HT-29 and MCF-7 tumor cell lines; assay: Cytotoxic screening against the panel of tumor cell lines (MTT); format: cell-based, human; settings: Homo sapiens; range over the seven tumor cell lines, 72 h; read-out: IC50 values across all tested cell lines
Method: The cytotoxicity assessment was performed against three human cancer cell lines in suspension (K562, HL-60 and MOLT-4) and four adhered (HEp-2, NCI-H292, HT-29 and MCF-7).
The cells were obtained from the Cell Bank of Rio de Janeiro and maintained in the Laboratory of Cell Culture of the Department of Antibiotics of the Federal University of Pernambuco. The lines K562 (myeloblastic leukaemia), HL-60 (promyelocytic leukemia) and MOLT-4 (lymphoblastic leukemia) were cultured in RPMI 1640 medium and the lines HEp-2 (larynx carcinoma), NCI-H292 (lung carcinoma), HT-29 (colon adenocarcinoma) and MCF-7 (breast adenocarcinoma) were cultured in DMEM medium, supplemented with 10% fetal bovine serum, 2 mM glutamine, 100 U/mL penicillin and 100 μg/mL streptomycin (Gibco™ Life Technologies), at 37 °C and 5% CO2.
The evaluation of the cytotoxicity of the compounds was performed by the method of 3-(4,5-dimethyl-2-thiazolyl)-2,5-diphenyl-2H-tetrazolium bromide (MTT) (Sigma Aldrich Co., St. Louis, MO, USA). To perform the assay the cells were seeded in 96-well plates at the following concentrations: HL-60 and K562 (0.3 × 10^6 cells/mL); MOLT-4 and PBMC (10^6 cells/mL); NCI-H292, HT-29, HEp-2 e MCF-7 (10^5 cells/mL). Briefly, the compounds previously dissolved in DMSO (dimethylsulfoxide, Vetec, São Paulo, Brazil), were diluted in medium and added to each well at the desired concentrations. For the calculation of the concentration that inhibits 50% of cell growth (IC50) the compounds were serially diluted to obtain the final concentrations between 0.19–25 μg/mL. Doxorubicin was used as the standard in the concentration range between (0.078–10 μg/mL). After 72 h of contact of the cells with the compounds, it was added to each well 25 μL of MTT solution (5 mg/mL). […] To perform the reading, 100 μL of DMSO was added in each well for the dissolution of the formazan crystals. The amount of formazan was measured by reading the plate at 560 nm absorbance. The IC50 was calculated from the nonlinear regression in the Prisma 7.0 software (GraphPad, San Diego, CA, USA). […]

HL-60 cells [2] = assay: Cell cycle assay (propidium iodide), flow cytometry; format: cell-based, human; settings: 72 h
Method: In order to improve the study of the mechanism of death induction by compounds 3c and 4a in HL-60 cells, a test was performed on the flow cytometer after staining with propidium iodide to evaluate the effect of the compounds on cell cycle progression (Figure 6).
(§1) HL-60 cells (3 × 10^5) were plated in 24-well plates and treated with the compounds 3c (13 and 26 μM) and 4a (11 and 22 μM) for 72 h at 37 °C with 5% CO2. In all trials, doxorubicin was used as a positive control. After the incubation period, an aliquot of 500 μL of treated and untreated cells suspension was transferred to an Eppendorf tube and centrifuged to remove the supernatant and continue the protocol of the test. In the cell viability and annexin V assays, kits were used, ViaCount kit and guava nexin kit (Guava Technologies), respectively. The protocols performed in these tests followed the manufacturer’s instructions. For to analyze mitochondrial depolarization, rhodamine 123 fluorescent dye was used. In the assay for cell cycle analysis and DNA fragmentation propidium iodide was used. The experiments were performed on Guava EasyCyte HT (Merck-Millipore) flow cytometer, acquiring 5000 events. The data were analyzed in Guava-Soft™ software version 2.7. Three independent experiments were performed in triplicate.

HL-60 cells [3] = assay: Mitochondrial transmembrane potential (rhodamine 123), flow cytometry; format: cell-based, human; settings: 72 h
Method: In this sense, in order to evaluate if compounds 3c and 4a induce apoptosis by alterating the mitochondria transmembrane potential, this assay was performed by flow cytometry using the fluorochrome rhodamine 123, because this is able to accumulate in cells with unchanged mitochondrial transmembrane potential.
as §1

HL-60 cells [4] = assay: DNA fragmentation assay (sub-G1, propidium iodide); format: cell-based, human; settings: 72 h
Description: DNA fragmentation is initiated after chromatin condensation and depends on several variables, such as the time required for the depolarization of the mitochondria and activation of the caspase cascade. In response to DNA damage the p53 protein is activated causing cell cycle arrest in G1 [57]. At flow cytometry the apoptotic cells with fragmented DNA can be identified as the sub-G1 population, seen to the left of the G1 peak. Thus, using the fluorochrome propidium iodide and the same principle of the cell cycle test, an assay was performed to identify HL-60 cells with fragmented DNA (Figure 7).
as §1

[5] = system: Peripheral Blood Mononuclear Cells (PBMCs); assay: MTT cytotoxicity in normal cells, 72 h; format: cell-based, human; settings: Homo sapiens, PBMC, 72 h of incubation
Method: In order to evaluate the cytotoxic potential in normal cells, all the derivatives were tested against Peripheral Blood Mononuclear Cells (PBMCs) and the most promising compounds were again compounds 3c and 4a, which offered more selectivity against the cancer cells.
Mononuclear cells were obtained from the peripheral blood of healthy volunteers by heparin tube collection and isolated by Ficoll-Histopaque gradient centrifugation. After centrifugation, the cells were harvested, washed and resuspended in RPMI 1640 medium supplemented with 20% fetal bovine serum, 2 mM glutamine, 100 U/mL penicillin and 100 μg/mL streptomycin (Gibco™ Life Technologies, Waltham, MA, USA). The phytohemagglutinin mitogen 2% was also added into the culture medium. After that, using the neubauer chamber, the cells were counted and plated in a 96-well plate at a concentration of 10^6 cells/mL and then were maintained for overnight under incubation at 37 °C and 5% CO2 [65].
The evaluation of the cytotoxicity of the compounds was performed by the method of 3-(4,5-dimethyl-2-thiazolyl)-2,5-diphenyl-2H-tetrazolium bromide (MTT) (Sigma Aldrich Co., St. Louis, MO, USA). To perform the assay the cells were seeded in 96-well plates at the following concentrations: HL-60 and K562 (0.3 × 10^6 cells/mL); MOLT-4 and PBMC (10^6 cells/mL); NCI-H292, HT-29, HEp-2 e MCF-7 (10^5 cells/mL). Briefly, the compounds previously dissolved in DMSO (dimethylsulfoxide, Vetec, São Paulo, Brazil), were diluted in medium and added to each well at the desired concentrations. For the calculation of the concentration that inhibits 50% of cell growth (IC50) the compounds were serially diluted to obtain the final concentrations between 0.19–25 μg/mL. Doxorubicin was used as the standard in the concentration range between (0.078–10 μg/mL). After 72 h of contact of the cells with the compounds, it was added to each well 25 μL of MTT solution (5 mg/mL). Plates were left for another 3 h in incubator at 37 °C and at the end of that period the supernatant was aspirated. To perform the reading, 100 μL of DMSO was added in each well for the dissolution of the formazan crystals. The amount of formazan was measured by reading the plate at 560 nm absorbance. The IC50 was calculated from the nonlinear regression in the Prisma 7.0 software (GraphPad, San Diego, CA, USA). Each sample was tested in triplicate in three independent experiments.

PIM1 = target: T1, PIM1 (Homo sapiens, UniProt P11309); assay: Kinase inhibition assay (ADP-Glo); format: biochemical; settings: 10 µM ATP
T1 construct: made in house; host or cells: bacteria
Method: HsPIM1 (human proto-oncogene, recombinant, expressed in bacteria) was assayed in buffer B with 0.8 µg/µL of histone H1 (Sigma #H5505) as substrate.

CDK5/p25 = target: T2, CDK5/p25 (Homo sapiens, UniProt Q00535); assay: Kinase inhibition assay (ADP-Glo); format: biochemical; settings: 10 µM ATP
T2 construct: made in house; host or cells: bacteria
Method: HsCDK5/p25 (human, recombinant, expressed in bacteria) was assayed in buffer A, with 0.8 µg/µL of histone H1 as substrate.

AURKB = target: T3, AURKB (Homo sapiens, UniProt Q96GD4); assay: Kinase inhibition assay (ADP-Glo); format: biochemical; settings: 10 µM ATP
T3 construct: purchased SignalChem A31-10G; host or cells: Sf9 insect cells (baculovirus)
T3 sequence (Q96GD4 whole entry): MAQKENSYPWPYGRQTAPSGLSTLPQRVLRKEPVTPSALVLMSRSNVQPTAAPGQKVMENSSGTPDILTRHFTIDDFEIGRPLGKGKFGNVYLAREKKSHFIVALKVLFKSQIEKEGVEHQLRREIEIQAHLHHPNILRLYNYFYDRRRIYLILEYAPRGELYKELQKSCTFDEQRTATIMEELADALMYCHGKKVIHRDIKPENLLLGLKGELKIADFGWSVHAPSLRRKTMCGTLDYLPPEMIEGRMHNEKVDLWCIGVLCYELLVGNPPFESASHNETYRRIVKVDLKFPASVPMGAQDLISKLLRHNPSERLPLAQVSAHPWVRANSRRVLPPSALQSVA

T1 sequence (P11309 whole entry): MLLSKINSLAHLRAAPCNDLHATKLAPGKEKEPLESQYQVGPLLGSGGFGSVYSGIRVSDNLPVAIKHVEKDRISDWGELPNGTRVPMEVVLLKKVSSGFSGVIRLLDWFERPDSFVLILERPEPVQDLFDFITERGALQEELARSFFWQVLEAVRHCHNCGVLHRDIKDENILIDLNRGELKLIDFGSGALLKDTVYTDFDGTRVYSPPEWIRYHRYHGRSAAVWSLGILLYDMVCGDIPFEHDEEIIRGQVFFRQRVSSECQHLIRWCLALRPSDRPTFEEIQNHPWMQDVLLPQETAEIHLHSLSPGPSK
T2 sequence (Q00535 whole entry): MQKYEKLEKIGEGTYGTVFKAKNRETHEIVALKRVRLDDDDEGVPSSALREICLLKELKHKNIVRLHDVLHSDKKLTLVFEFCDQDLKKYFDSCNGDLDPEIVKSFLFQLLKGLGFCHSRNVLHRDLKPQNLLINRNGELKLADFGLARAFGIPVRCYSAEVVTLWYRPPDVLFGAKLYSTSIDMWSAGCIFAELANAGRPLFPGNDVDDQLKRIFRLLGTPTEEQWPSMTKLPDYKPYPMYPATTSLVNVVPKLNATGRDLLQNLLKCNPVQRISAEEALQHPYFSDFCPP
T2 sequence (Q15078 99-307 partner limits assumed): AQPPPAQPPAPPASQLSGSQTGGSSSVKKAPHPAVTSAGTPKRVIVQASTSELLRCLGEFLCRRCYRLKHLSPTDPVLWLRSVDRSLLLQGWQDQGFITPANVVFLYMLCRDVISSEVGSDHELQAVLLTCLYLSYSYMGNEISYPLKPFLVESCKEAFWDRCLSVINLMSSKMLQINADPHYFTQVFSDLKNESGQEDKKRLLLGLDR

IC50 (PIM1)	IC50 (CDK5/p25)	IC50 (AURKB)	Structure (SMILES)	IC50 [1]	cells in G1 phase (HL-60 cells [2]; 13 μM)	cells in G1 phase (HL-60 cells [2]; 26 μM)	depolarized cells (HL-60 cells [3]; 13 μM)	depolarized cells (HL-60 cells [3]; 26 μM)	cells with DNA fragmentation (HL-60 cells [4]; 13 μM)	cells with DNA fragmentation (HL-60 cells [4]; 26 μM)	IC50 [5]	cells in G1 phase (HL-60 cells [2]; 11 μM)	cells in G1 phase (HL-60 cells [2]; 22 μM)	depolarized cells (HL-60 cells [3]; 22 μM)	cells with DNA fragmentation (HL-60 cells [4]; 11 μM)	cells with DNA fragmentation (HL-60 cells [4]; 22 μM)
0.52 µM	0.35 µM	5.1 µM	NC(=O)N/N=C/c1c(O)ccc2ccccc12 [Compound 3c, 2-Hydroxynaphthaldehyde Semicarbazone]	13.1 to 56.3 µM	63.3%	66.2%	30.9%	34.2%	3.2%	7.5%	82 ± 1.63 µM	–	–	–	–	–
> 10 µM	> 10 µM	> 10 µM	Cc1ccc(C=NNC(N)=O)cc1 [Compound 3g, 4-Methylbenzaldehyde Semicarbazone]	–	–	–	–	–	–	–	> 100 µM	–	–	–	–	–
> 10 µM	> 10 µM	> 10 µM	CCCCN(N=Cc1ccc([N+](=O)[O-])o1)C(N)=O [Compound 4a, 5-Nitro-2-(N^2-n-butyl)furfuraldehyde Semicarbazone]	11.4 to 37.9 µM	–	–	–	–	–	–	51.2 ± 0.75 µM	62.7%	81.9%	59.3%	7.0%	40.3%
